Data taken from patent US12435044B2, “Pyridazinone herbicides and pyridazinone intermediates used to prepare a herbicide” (FMC Corporation, priority 2018, dated 2025).

Experiments:
Assay type in all cases: in vivo
[1] = test system: pigweed (Amaranthus retroflexus); experiment: Test C pre-/postemergence greenhouse test; conditions: scale 0 to 100
In short: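 Test chemicals were formulated in a non-phytotoxic solvent mixture with surfactant and applied preemergence to seeds in silt loam soil or postemergence to plants of 2 to 18 cm in a peat/vermiculite medium. After 13 to 21 d in a greenhouse, response was visually scored from 0 (no effect) to 100 (complete control).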

[2] = test system: mare's tail (ERICA; Conyza canadensis); experiment: Test K pre-/postemergence, mixtures of Cpd. No. 20 with metribuzin or rimsulfuron
Source text: (§1) This test evaluated the effect of mixtures of Cpd. No. 20 with metribuzin or rimsulfuron on several plant species. Seeds of plant species selected from corn (ZEAMD; Zea mays, cv. ‘Pioneer 1184’), soybean (GLXMA; Glycine max, cv. Pioneer 35T58), giant foxtail (SETFA; Setaria faberi), palmer amaranth (AMAPA; Amaranthus palmeri), common waterhemp (AMATU; Amaranthus rudis), mare's tail (ERICA; Conyza canadensis), and common ragweed (AMBEL; Ambrosia artemisiifolia) were planted in pots containing Tama Silt Loam soil and treated preemergence with a directed soil spray using test chemicals formulated in a non-phytotoxic solvent mixture which included a surfactant.
(§2) At the same time, plants selected from these crop and weed species were planted in pots containing Redi-Earth® planting medium (Scotts Company, 14111 Scottslawn Road, Marysville, Ohio 43041) comprising spaghnum peat moss, vermiculite, wetting agent and starter nutrients and treated postemergence with test chemicals formulated in the same manner. Plants ranged in height from 2 to 10 cm and were in the one- to two-leaf stage for the postemergence treatment. Treated plants and untreated controls were maintained in a greenhouse for approximately 14-21 d, after which time all treated plants were compared to untreated controls and visually evaluated for injury. Plant response ratings, summarized in Tables K1 to K4, are based on a 0 to 100 scale where 0 is no effect and 100 is complete control. A dash (-) response means no test result. Test results are presented as a mean of 4 reps.

[3] = test system: soybean (GLXMA; Glycine max, cv. Pioneer 35T58); experiment: as above
Source text: as §1, §2

[4] = test system: giant foxtail (SETFA; Setaria faberi); experiment: as above
Source text: as §1, §2

[5] = test system: corn (ZEAMD; Zea mays, cv. ‘Pioneer 1184’); experiment: as above
Source text: as §1, §2

[6] = test system: common waterhemp (AMATU; Amaranthus rudis); experiment: as above
Source text: as §1, §2

[7] = test system: palmer amaranth (AMAPA; Amaranthus palmeri); experiment: as above
Source text: as §1, §2

[8] = test system: common ragweed (AMBEL; Ambrosia artemisiifolia); experiment: as above
Source text: as §1, §2

Cc1ccc2ccc(C)c(-c3c(O)c(Cl)nn(C)c3=O)c2c1 [Cpd. No. 20, 6-chloro-4-(2,7-dimethyl-1-naphthalenyl)-5-hydroxy-2-methyl-3(2H)-pyridazinone]
Plant response rating, Pigweed ([1]; Postemergence, 16 g ai/ha): 90
Plant response rating, Pigweed ([1]; Postemergence, 31 g ai/ha): 95
Plant response rating, Pigweed ([1]; Postemergence, 62 g ai/ha): 95
Plant response rating, Pigweed ([1]; Postemergence, 125 g ai/ha): 98
Plant response rating, Pigweed ([1]; Preemergence, 31 g ai/ha): 100
Plant response rating, Pigweed ([1]; Preemergence, 61 g ai/ha): 100
Plant response rating, Pigweed ([1]; Preemergence, 62 g ai/ha): 100
Plant response rating, Pigweed ([1]; Preemergence, 125 g ai/ha): 100
ERICA plant response rating, 0 to 100 scale ([2]; postemergence, 8 g a.i./ha): 77
ERICA plant response rating, 0 to 100 scale ([2]; postemergence, 16 g a.i./ha): 85
ERICA plant response rating, 0 to 100 scale ([2]; postemergence, 31 g a.i./ha): 92
ERICA plant response rating, 0 to 100 scale ([2]; postemergence, 62 g a.i./ha): 93
ERICA plant response rating, 0 to 100 scale ([2]; preemergence, 8 g a.i./ha): 89
ERICA plant response rating, 0 to 100 scale ([2]; preemergence, 16 g a.i./ha): 100
ERICA plant response rating, 0 to 100 scale ([2]; preemergence, 31 g a.i./ha): 100
ERICA plant response rating, 0 to 100 scale ([2]; preemergence, 62 g a.i./ha): 100
GLXMA plant response rating, 0 to 100 scale ([3]; postemergence, 8 g a.i./ha): 0
GLXMA plant response rating, 0 to 100 scale ([3]; postemergence, 16 g a.i./ha): 0
GLXMA plant response rating, 0 to 100 scale ([3]; postemergence, 31 g a.i./ha): 8
GLXMA plant response rating, 0 to 100 scale ([3]; postemergence, 62 g a.i./ha): 13
GLXMA plant response rating, 0 to 100 scale ([3]; preemergence, 8 g a.i./ha): 0
GLXMA plant response rating, 0 to 100 scale ([3]; preemergence, 16 g a.i./ha): 0
GLXMA plant response rating, 0 to 100 scale ([3]; preemergence, 31 g a.i./ha): 0
GLXMA plant response rating, 0 to 100 scale ([3]; preemergence, 62 g a.i./ha): 0
SETFA plant response rating, 0 to 100 scale ([4]; postemergence, 8 g a.i./ha): 37
SETFA plant response rating, 0 to 100 scale ([4]; postemergence, 16 g a.i./ha): 62
SETFA plant response rating, 0 to 100 scale ([4]; postemergence, 31 g a.i./ha): 77
SETFA plant response rating, 0 to 100 scale ([4]; postemergence, 62 g a.i./ha): 92
SETFA plant response rating, 0 to 100 scale ([4]; preemergence, 8 g a.i./ha): 6
SETFA plant response rating, 0 to 100 scale ([4]; preemergence, 16 g a.i./ha): 50
SETFA plant response rating, 0 to 100 scale ([4]; preemergence, 31 g a.i./ha): 84
SETFA plant response rating, 0 to 100 scale ([4]; preemergence, 62 g a.i./ha): 100
ZEAMD plant response rating, 0 to 100 scale ([5]; postemergence, 8 g a.i./ha): 0
ZEAMD plant response rating, 0 to 100 scale ([5]; postemergence, 16 g a.i./ha): 0
ZEAMD plant response rating, 0 to 100 scale ([5]; postemergence, 31 g a.i./ha): 0
ZEAMD plant response rating, 0 to 100 scale ([5]; postemergence, 62 g a.i./ha): 0
ZEAMD plant response rating, 0 to 100 scale ([5]; preemergence, 8 g a.i./ha): 0
ZEAMD plant response rating, 0 to 100 scale ([5]; preemergence, 16 g a.i./ha): 0
ZEAMD plant response rating, 0 to 100 scale ([5]; preemergence, 31 g a.i./ha): 0
ZEAMD plant response rating, 0 to 100 scale ([5]; preemergence, 62 g a.i./ha): 0
AMATU plant response rating, 0 to 100 scale ([6]; postemergence, 8 g a.i./ha): 50
AMATU plant response rating, 0 to 100 scale ([6]; postemergence, 16 g a.i./ha): 57
AMATU plant response rating, 0 to 100 scale ([6]; postemergence, 31 g a.i./ha): 68
AMATU plant response rating, 0 to 100 scale ([6]; postemergence, 62 g a.i./ha): 62
AMATU plant response rating, 0 to 100 scale ([6]; preemergence, 8 g a.i./ha): 0
AMATU plant response rating, 0 to 100 scale ([6]; preemergence, 16 g a.i./ha): 0
AMATU plant response rating, 0 to 100 scale ([6]; preemergence, 31 g a.i./ha): 20
AMATU plant response rating, 0 to 100 scale ([6]; preemergence, 62 g a.i./ha): 30
AMAPA plant response rating, 0 to 100 scale ([7]; postemergence, 8 g a.i./ha): 28
AMAPA plant response rating, 0 to 100 scale ([7]; postemergence, 16 g a.i./ha): 38
AMAPA plant response rating, 0 to 100 scale ([7]; postemergence, 31 g a.i./ha): 33
AMAPA plant response rating, 0 to 100 scale ([7]; postemergence, 62 g a.i./ha): 60
AMAPA plant response rating, 0 to 100 scale ([7]; preemergence, 8 g a.i./ha): 0
AMAPA plant response rating, 0 to 100 scale ([7]; preemergence, 16 g a.i./ha): 26
AMAPA plant response rating, 0 to 100 scale ([7]; preemergence, 31 g a.i./ha): 50
AMAPA plant response rating, 0 to 100 scale ([7]; preemergence, 62 g a.i./ha): 45
AMBEL plant response rating, 0 to 100 scale ([8]; postemergence, 8 g a.i./ha): 82
AMBEL plant response rating, 0 to 100 scale ([8]; postemergence, 16 g a.i./ha): 82
AMBEL plant response rating, 0 to 100 scale ([8]; postemergence, 31 g a.i./ha): 92
AMBEL plant response rating, 0 to 100 scale ([8]; postemergence, 62 g a.i./ha): 97
AMBEL plant response rating, 0 to 100 scale ([8]; preemergence, 8 g a.i./ha): 0
AMBEL plant response rating, 0 to 100 scale ([8]; preemergence, 16 g a.i./ha): 26
AMBEL plant response rating, 0 to 100 scale ([8]; preemergence, 31 g a.i./ha): 55
AMBEL plant response rating, 0 to 100 scale ([8]; preemergence, 62 g a.i./ha): 100
